Laboratory results taken from article PMC7178819, “6,7-Dimethoxy-2-phenethyl-1,2,3,4-tetrahydroisoquinoline amides and corresponding ester isosteres as multidrug resistance reversers” (Journal of Enzyme Inhibition and Medicinal Chemistry, 2020).
Counter-ions that a name gives are not always drawn. Values belong to the molecule of their own block, whether it stands above or below them.

Experiments:
[1] = Apparent permeability (Papp) determination (BA/AB) in Caco-2 cell monolayer; format: in vitro ADME; conditions: human, Caco-2 monolayer
Description: Caco-2 cells were seeded onto a Millicell® assay system (Millipore), where a cell monolayer is set in between a filter cell and a receiver plate, at a density of 10 000 cells/well[46]. The culture medium was replaced every 48 h and the cells kept for 21 days in culture. The Trans Epithelial Electrical Resistance (TEER) of the monolayers was measured daily, before and after the experiment, using an epithelial volt-ohmmeter (Millicell®-ERS). Generally, TEER values greater than 1000 Ω for a 21 days culture, are considered optimal.
After 21 days of Caco-2 cell growth, the medium was removed from filter wells and from the receiver plate, which were filled with fresh HBSS buffer (Invitrogen). This procedure was repeated twice, and the plates were incubated at 37 °C for 30 min. After incubation time, the HBSS buffer was removed and drug solutions and reference compounds were added to the filter well at the concentration of 100 µM, while fresh HBSS was added to the receiver plate. The plates were incubated at 37 °C for 120 min. Afterwards, samples were removed from the apical (filter well) and basolateral (receiver plate) side of the monolayer to measure the permeability.
(§1) The interaction potency between the designed compounds and P-gp was evaluated by measuring the transport inhibition of the pro-fluorescent probe Calcein-AM, that is a P-gp substrate, in a cell line overexpressing P-gp (MDCK-MDR1)[47]. The P-gp interacting profile was further investigated with two other assays: the Apparent Permeability (Papp) determination (BA/AB) in Caco-2 cell monolayer[48]^,[49], and the ATP cell depletion in the MDCK-MDR1 cell line[50]. Taking into account the results of the combined tests, an interacting compound can be classified as substrate or inhibitor. Papp determination measures the ratio between two fluxes: from the basolateral to apical compartments (BA, representative of passive diffusion) and from the apical to basolateral compartments (AB, representative of active transport). […] In the same manner, if (BA/AB) >2, the compound should probably be classified as a substrate. […] The selectivity of ligands 1–26 was evaluated by detecting their activity towards the other ABC transporters MRP1 and BCRP, by measuring the inhibition of the efflux of Calcein-AM (i.e., also a MRP1 substrate) in cells overexpressing MRP1 (MDCK-MRP1 cells), and the inhibition of the efflux of the fluorescent probe Hoechst 33342 (i.e. a BCRP substrate) in cells overexpressing BCRP (MDCK-BCRP cells), respectively.

[2] = target: T1, BCRP (Homo sapiens, UniProt Q9UNQ0); experiment: Inhibition of Hoechst 33342 efflux in MDCK-BCRP cells; format: cell-based; conditions: Hoechst 33342, MDCK-BCRP cells; NA: not active
T1 construct: expressed in transfected cells; host or cells: MDCK-BCRP (Madin-Darby Canine Kidney cells, gift of Prof. P. Borst, NKI-AVL)
T1 sequence (Q9UNQ0 1-655): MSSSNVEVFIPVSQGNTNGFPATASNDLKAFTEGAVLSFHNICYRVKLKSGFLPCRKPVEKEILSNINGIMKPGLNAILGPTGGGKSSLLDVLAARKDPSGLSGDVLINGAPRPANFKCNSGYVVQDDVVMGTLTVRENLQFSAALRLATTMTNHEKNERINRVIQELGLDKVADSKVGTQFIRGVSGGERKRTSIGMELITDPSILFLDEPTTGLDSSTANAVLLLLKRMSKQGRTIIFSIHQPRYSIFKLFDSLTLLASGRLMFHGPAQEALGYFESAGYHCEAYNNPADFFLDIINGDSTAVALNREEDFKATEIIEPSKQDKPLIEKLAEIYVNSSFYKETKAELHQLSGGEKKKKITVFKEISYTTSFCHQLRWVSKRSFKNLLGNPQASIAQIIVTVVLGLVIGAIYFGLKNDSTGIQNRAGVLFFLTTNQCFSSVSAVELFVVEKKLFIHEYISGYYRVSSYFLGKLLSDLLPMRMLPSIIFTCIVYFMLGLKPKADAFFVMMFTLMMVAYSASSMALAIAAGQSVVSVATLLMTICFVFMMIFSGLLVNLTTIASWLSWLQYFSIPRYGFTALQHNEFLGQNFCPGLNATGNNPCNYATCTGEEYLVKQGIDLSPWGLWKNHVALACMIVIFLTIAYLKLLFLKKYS
Description: These experiments were carried out as described by Teodori et al.[34]. Each cell line (30 000 cells per well) was seeded into black CulturePlate 96/wells plate with 100 µL medium and allowed to become confluent overnight. 100 µL of test compounds were solubilised in culture medium and added to monolayers, with final concentrations ranging from 1 to 100 µM. 96/Wells plate was incubated for 30 min in a humidified atmosphere 5% CO2 at 37 °C. Hoechst 33342 was added in 100 µl of phosphate-buffered saline (PBS) to yield a final concentration of 8 µM and plate was incubated for 30 min in a humidified atmosphere 5% CO2 at 37 °C. The supernatants were drained, and the cells were fixed for 20 min under light protection using 100 µL per well of a 4% PFA solution. Each well was washed three times with ice cold PBS. Saline buffer was added to each well and the plate was read with Victor3 (PerkinElmer) at excitation and emission wavelengths of 340/35 nm and 485/20 nm, respectively. In these experimental conditions, Hoechst 33342 accumulation in the absence and in the presence of tested compounds was evaluated and fluorescence basal level was estimated with untreated cells. In treated wells, the increase of fluorescence with respect to basal level was measured. EC50 values were determined by fitting the fluorescence increase percentage versus log[dose]. […]

[3] = target: T2, P-gp (Homo sapiens, UniProt P08183); experiment: ATP cell depletion (ATPlite assay) in MDCK-MDR1 cells; format: cell-based; conditions: Yes/No
T2 construct: expressed in transfected cells; host or cells: MDCK-MDR1 (Madin-Darby Canine Kidney cells, gift of Prof. P. Borst, NKI-AVL)
T2 sequence (P08183 whole entry): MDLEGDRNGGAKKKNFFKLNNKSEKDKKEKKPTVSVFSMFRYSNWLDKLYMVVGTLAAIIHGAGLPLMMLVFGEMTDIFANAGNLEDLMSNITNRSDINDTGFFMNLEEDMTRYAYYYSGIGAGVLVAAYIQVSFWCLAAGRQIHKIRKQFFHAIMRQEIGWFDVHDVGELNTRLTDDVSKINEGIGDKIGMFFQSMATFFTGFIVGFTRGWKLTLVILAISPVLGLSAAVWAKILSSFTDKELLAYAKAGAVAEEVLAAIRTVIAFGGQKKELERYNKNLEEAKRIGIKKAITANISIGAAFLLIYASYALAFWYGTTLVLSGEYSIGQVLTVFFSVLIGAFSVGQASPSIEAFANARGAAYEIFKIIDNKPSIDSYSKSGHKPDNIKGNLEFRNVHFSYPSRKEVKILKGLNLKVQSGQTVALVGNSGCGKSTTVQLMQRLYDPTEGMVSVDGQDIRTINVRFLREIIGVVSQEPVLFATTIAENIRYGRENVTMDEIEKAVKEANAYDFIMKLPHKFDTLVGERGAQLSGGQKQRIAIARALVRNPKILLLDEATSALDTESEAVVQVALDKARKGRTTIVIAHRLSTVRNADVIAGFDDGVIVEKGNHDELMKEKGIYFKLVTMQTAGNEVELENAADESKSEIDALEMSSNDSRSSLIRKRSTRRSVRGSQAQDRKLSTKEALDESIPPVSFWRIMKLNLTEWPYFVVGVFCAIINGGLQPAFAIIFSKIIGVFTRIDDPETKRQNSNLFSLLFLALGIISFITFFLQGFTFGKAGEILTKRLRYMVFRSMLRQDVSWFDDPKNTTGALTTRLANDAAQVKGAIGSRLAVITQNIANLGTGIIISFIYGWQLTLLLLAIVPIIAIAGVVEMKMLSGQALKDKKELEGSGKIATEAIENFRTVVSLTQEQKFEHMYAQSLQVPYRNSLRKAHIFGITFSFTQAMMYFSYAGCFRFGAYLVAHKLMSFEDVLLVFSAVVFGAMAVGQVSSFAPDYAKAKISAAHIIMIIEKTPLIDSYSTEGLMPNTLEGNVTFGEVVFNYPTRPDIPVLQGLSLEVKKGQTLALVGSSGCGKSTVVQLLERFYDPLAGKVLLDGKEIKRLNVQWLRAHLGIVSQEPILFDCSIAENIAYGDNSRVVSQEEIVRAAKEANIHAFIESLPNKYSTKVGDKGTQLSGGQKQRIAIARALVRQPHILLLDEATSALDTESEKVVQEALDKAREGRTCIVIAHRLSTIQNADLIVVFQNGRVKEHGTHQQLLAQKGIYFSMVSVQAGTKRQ
Description: The MDCK-MDR1 cells were seeded into 96-well microplate in 100 µL of complete medium at a density 20,000 cells per well. The plate was incubated overnight (O/N) in a humidified atmosphere 5% CO2 at 37 °C. The medium was removed and 100 µL of complete medium either alone or containing different concentrations (ranging from 1 to 100 µM) of test compounds was added. The plate was incubated for 2 h in a humidified 5% CO2 atmosphere at 37 °C. 50 µL of mammalian cell lysis solution was added to all wells and the plate shacked for five minutes in an orbital shaker. 50 µL of substrate solution was added to all wells and the plate shacked for five minutes in an orbital shaker. The plate was dark adapted for ten minutes and the luminescence was measured.
as §1

[4] = target: T2, P-gp; experiment: Inhibition of Calcein-AM transport in MDCK-MDR1 cells; format: cell-based; conditions: Calcein-AM, MDCK-MDR1 cells; mean ± SEM of two experiments
Description: These experiments were carried out as previously described by Teodori et al. with minor modifications. Each cell line (30 000 cells per well) was seeded into black CulturePlate 96/wells plate with 100 µL medium and allowed to become confluent overnight. 100 µL of test compounds were solubilised in culture medium and added to monolayers, with final concentrations ranging from 1 nM to 100 µM. 96/Wells plate was incubated for 30 min in a humidified atmosphere 5% CO2 at 37 °C. Calcein-AM was added in 100 µL of Phosphate Buffered Saline (PBS) to yield a final concentration of 2.5 µM and plate was incubated for 30 min in a humidified atmosphere 5% CO2 at 37 °C. Each well was washed 3 times with ice cold PBS. Saline buffer was added to each well and the plate was read with Victor3 (PerkinElmer) at excitation and emission wavelengths of 485 and 535 nm, respectively. In these experimental conditions, Calcein cell accumulation in the absence and in the presence of tested compounds was evaluated and fluorescence basal level was estimated with untreated cells. In treated wells the increase of fluorescence with respect to basal level was measured. EC50 values were determined by fitting the fluorescence increase percentage versus log[dose].
The interaction potency between the designed compounds and P-gp was evaluated by measuring the transport inhibition of the pro-fluorescent probe Calcein-AM, that is a P-gp substrate, in a cell line overexpressing P-gp (MDCK-MDR1)[47]. The P-gp interacting profile was further investigated with two other assays: the Apparent Permeability (Papp) determination (BA/AB) in Caco-2 cell monolayer[48]^,[49], and the ATP cell depletion in the MDCK-MDR1 cell line[50]. […] Papp determination measures the ratio between two fluxes: from the basolateral to apical compartments (BA, representative of passive diffusion) and from the apical to basolateral compartments (AB, representative of active transport). […] In the same manner, if (BA/AB) >2, the compound should probably be classified as a substrate.

[5] = Stability test in phosphate buffer solution (PBS); format: physicochemical; conditions: 1 µM, 37 °C, up to 120 min
Description: (§2) Each sample was prepared adding 10 µL of working solution 1 to 100 µL of tested matrix (PBS or human plasma) in micro centrifuge tubes. The obtained solutions correspond to 1 µM of analyte.
Each set of samples was incubated in triplicate at four different times, 0, 30, 60 and 120 min at 37 °C. Therefore, the degradation profile of each analyte was represented by a batch of 12 samples (4 incubation times × 3 replicates). After the incubation, the samples were added with 300 µL of ISTD solution and centrifuged (room temperature for 5 min at 10,000 rpm). The supernatants were transferred in auto sampler vials and dried under a gentle stream of nitrogen.
(§3) The dried samples were dissolved in 1.0 ml of 10 mM of formic acid in mQ water: acetonitrile 80:20 solution. The obtained sample solutions were analysed by LC-MS/MS methods described in Supplementary material.
Due to the presence of ester or amide groups in the structure of compounds 1–26, a study aimed to evaluate their susceptibility to spontaneous or enzymatic hydrolysis, was planned. For this purpose, a series of experiments were carried out, adding a known amount of analyte in both phosphate buffer solution (PBS) and in human plasma. The samples were analysed by LC-MS/MS method operating in Multiple Reaction Monitoring (MRM) mode[55]. […]

[6] = Stability test in human plasma (LC-MS/MS); format: in vitro ADME; conditions: 1 µM, 37 °C
Description: as §2
After the incubation, the samples were added with 300 µL of ISTD solution and centrifuged (room temperature for 5 min at 10,000 rpm). The supernatants were transferred in auto sampler vials and dried under a gentle stream of nitrogen.
as §3
For this purpose, a series of experiments were carried out, adding a known amount of analyte in both phosphate buffer solution (PBS) and in human plasma. The samples were analysed by LC-MS/MS method operating in Multiple Reaction Monitoring (MRM) mode[55].
The analyte concentration (1 µM) used during the stability tests is generally smaller than the corresponding Michaelis–Menten constant (KM); therefore, the enzymatic degradation rate is described by a first-order kinetic. Then, by plotting the natural logarithm of the quantitative data versus the incubation time, a linear function can be used and its slope represents the degradation rate (k).

[7] = test system: MDCK-MDR1 cells; experiment: Co-administration assay with doxorubicin (MTT), MDCK-MDR1 cells; format: cell-based, canine; conditions: 10 µM, MDCK cells overexpressing P-gp
Description: The co-administration assay with doxorubicin was performed in MDCK-MDR1, HT29, HT29/DX, A549 and A549/DX cells at 48 h. On day 1, 10,000 cells/well were seeded into 96-well plates in a volume of 100 µL of fresh medium. On day 2, the tested drug was added alone to the cells at different concentrations (ranging from 40 nM to 10 µM). On day 3, the medium was removed and the drug at the same concentrations was added alone and in co-administration with 10 µM doxorubicin to the cells. After the established incubation time with the tested drug, MTT (0.5 mg/mL) was added to each well, and after 3 − 4 h incubation at 37 °C, the supernatant was removed. The formazan crystals were solubilised using 100 µL of DMSO/EtOH (1:1), and the absorbance values at 570 and 630 nm were determined on the microplate reader HTX Synergy (Bio-Tek Instruments).

SMILES: COc1cc2c(cc1OC)CN(CCc1ccc(NC(=O)c3cc(OC)c(OC)cc3NC(=O)c3cnc4ccccc4c3)cc1)CC2 [tariquidar, reference compound]
- efflux ratio at 120 min, 100 µM [1]: > 20
- EC50 [2]: 10 ± 5 nM
- ATP cell depletion [3]: Yes^f
- EC50 [4]: 44 ± 1 nM

- melting point: 245 to 248 °C
SMILES: COc1cc2c(cc1OC)CN(CCc1ccc(NC(=O)c3c(OC)c(OC)cc4ccccc34)cc1)CC2 (as salt: hydrochloride) [Compound 8, N-(4–(2-(6,7-dimethoxy-3,4-dihydroisoquinolin-2(1H)-yl)ethyl)phenyl)-2,3-dimethoxy-1-naphthamide]

- melting point: 212 to 214 °C
SMILES: COc1cc2c(cc1OC)CN(CCc1ccc(NC(=O)c3c(OC)cccc3OC)cc1)CC2 (as salt: hydrochloride) [Compound 4, N-(4–(2-(6,7-dimethoxy-3,4-dihydroisoquinolin-2(1H)-yl)ethyl)phenyl)-2,6-dimethoxybenzamide]

- melting point: 228 to 230 °C
SMILES: COc1ccc2nccc(C(=O)Nc3ccc(CCN4CCc5cc(OC)c(OC)cc5C4)cc3)c2c1 (as salt: hydrochloride) [Compound 13, N-(4–(2-(6,7-dimethoxy-3,4-dihydroisoquinolin-2(1H)-yl)ethyl)phenyl)-6-methoxyquinoline-4-carboxamide]

- efflux ratio at 120 min, 100 µM [1]: 6
- ATP cell depletion [3]: No
- EC50 [4]: 870 ± 170 nM
- stability in PBS [5]: unmodified
- stability in human plasma ([6]; up to 120 min): stable over 120 min
- half-life at 1 µM ([6]; human, human plasma): ≥ 4 h
SMILES: COc1cncc(C(=O)Nc2ccc(CCN3CCc4cc(OC)c(OC)cc4C3)cc2)n1 [Compound 12, N-(4–(2-(6,7-dimethoxy-3,4-dihydroisoquinolin-2(1H)-yl)ethyl)phenyl)-6-methoxypyrazine-2-carboxamide]

- melting point: 239 to 241 °C
SMILES: COc1cc2c(cc1OC)CN(CCc1ccc(NC(=O)c3c(OC)ccc4ccccc34)cc1)CC2 (as salt: hydrochloride) [Compound 7, N-(4–(2-(6,7-dimethoxy-3,4-dihydroisoquinolin-2(1H)-yl)ethyl)phenyl)-2-methoxy-1-naphthamide]

SMILES: COc1cccc2c1C(=O)c1c(O)c3c(c(O)c1C2=O)C[C@@](O)(C(=O)CO)C[C@@H]3O[C@H]1C[C@H](N)[C@H](O)[C@H](C)O1 [doxorubicin, reference compound]
- cytotoxicity of doxorubicin alone [7]: did not show cytotoxicity
